Experimental data as given in US4352803A, “Novel naphthyridine derivatives, intermediates thereof, processes for preparation thereof, and use thereof” (Dainippon Pharmaceutical Co., Ltd., priority 1978, dated 1982).
In brackets after ≈: the same amount, converted by molar mass. Structures can show the parent of a compound that is named as a salt. Where two headings read alike, the source gives them in different places.

Key:
Proteus mirabilis P-2381 = assay: In vitro antibacterial activity (MIC), Proteus mirabilis P-2381; assay type: cell-based
From the text: (§1) (MIC) (μg/ml) Method; Chemotherapy, 22(6), 1126 (1974)

[1] = system: Escherichia coli NIHJ JC-2; assay: In vitro antibacterial activity (MIC), Escherichia coli NIHJ JC-2; assay type: cell-based
From the text: as §1

Shigella flexneri 2a = assay: In vitro antibacterial activity (MIC), Shigella flexneri 2a; assay type: cell-based; conditions: read-out: minimum inhibitory concentration (MIC)
From the text: as §1

Escherichia coli P-140a = assay: In vitro antibacterial activity (MIC), Escherichia coli P-140a; assay type: cell-based; conditions: read-out: minimum inhibitory concentration (MIC)
From the text: as §1

in vivo = conditions: mouse, in vivo, po
Description: The number of dead mice was counted after 7 days, and the value of median lethal dose (LD50, mg/kg) was calculated in accordance with the Behrens-Kaerber method.

[2] = system: Serratia marcescens IFC 3736; assay: In vitro antibacterial activity (MIC), Serratia marcescens IFC 3736; assay type: cell-based
From the text: as §1

[3] = system: Salmonella enteritidis No. 1891; assay: In vitro antibacterial activity (MIC), Salmonella enteritidis No. 1891; assay type: cell-based; conditions: Salmonella enterica, read-out: minimum inhibitory concentration (MIC)
From the text: as §1

[4] = system: Staphylococcus aureus 209P JC-1; assay: In vitro antibacterial activity (MIC), Staphylococcus aureus 209P JC-1; assay type: cell-based; conditions: read-out: minimum inhibitory concentration (MIC)
From the text: as §1

Proteus morganii Kono = assay: In vitro antibacterial activity (MIC), Proteus morganii Kono; assay type: cell-based; conditions: Morganella morganii, read-out: minimum inhibitory concentration (MIC)
From the text: as §1

[5] = system: Pseudomonas aeruginosa No. 12; assay: in vivo efficacy against systemic infection in mice, Pseudomonas aeruginosa No. 12; conditions: NO.12, in Mus musculus, po, 168 h
Description: Male mice (ddY) weighing about 20 g
(3) Pseudomonas aeruginosa No. 12;
(about 5 × 10^3 cells/mouse) of a bacterial
(§2) suspension in trypto-soy broth with 4% mucin.
(§3) Twice, about 5 minutes and 6 hours after infection.
The numerals in the table show ED50 (mg/kg). ED50 values were

[6] = system: Corynebacterium pyogenes C-21; assay: In vitro antibacterial activity (MIC), Corynebacterium pyogenes C-21; assay type: cell-based; conditions: Rhodococcus (subgen. Prescottella) equi
From the text: as §1

[7] = system: Pseudomonas aeruginosa No. 12; assay: In vitro antibacterial activity (MIC), Pseudomonas aeruginosa No. 12; assay type: cell-based
From the text: as §1

[8] = system: Staphylococcus aureus No. 50774; assay: In vitro antibacterial activity (MIC), Staphylococcus aureus No. 50774; assay type: cell-based
From the text: as §1

[9] = system: Salmonella typhimurium 8-9; assay: In vitro antibacterial activity (MIC), Salmonella typhimurium 8-9; assay type: cell-based; conditions: Salmonella enterica, read-out: minimum inhibitory concentration (MIC)
From the text: as §1

Escherichia coli P-5101 [10] = assay: In vitro antibacterial activity (MIC), Escherichia coli P-5101; assay type: cell-based; conditions: Escherichia coli, P5101, read-out: minimum inhibitory concentration (MIC)
From the text: as §1

[11] = system: Streptococcus pyogenes 65A; assay: In vitro antibacterial activity (MIC), Streptococcus pyogenes 65A; assay type: cell-based; conditions: read-out: minimum inhibitory concentration (MIC)
From the text: as §1

[12] = system: Shigella flexneri 4a P-330; assay: In vitro antibacterial activity (MIC), Shigella flexneri 4a P-330; assay type: cell-based; conditions: 4AP330, read-out: minimum inhibitory concentration (MIC)
From the text: as §1

[13] = system: Streptococcus faecalis P-2473; assay: In vitro antibacterial activity (MIC), Streptococcus faecalis P-2473; assay type: cell-based; conditions: Enterococcus faecalis
From the text: as §1

[14] = system: Pseudomonas aeruginosa Tsuchijima; assay: In vitro antibacterial activity (MIC), Pseudomonas aeruginosa Tsuchijima; assay type: cell-based; conditions: read-out: minimum inhibitory concentration (MIC)
From the text: as §1

[15] = system: Klebsiella pneumoniae No. 13; assay: In vitro antibacterial activity (MIC), Klebsiella pneumoniae No. 13; assay type: cell-based
From the text: as §1

[16] = system: Enterobacter cloacae P-2540; assay: In vitro antibacterial activity (MIC), Enterobacter cloacae P-2540; assay type: cell-based
From the text: as §1

[17] = system: Staphylococcus aureus No. 50774; assay: in vivo efficacy against systemic infection in mice, Staphylococcus aureus No. 50774; conditions: NO.50774, in Mus musculus, po, 336 h
Description: Male mice (ddY) weighing about 20 g
Intravenous infection with (about
5 × 10^8 cells/mouse) of a bacterial
as §3

Escherichia coli P-5101 [18] = assay: in vivo efficacy against systemic infection in mice, Escherichia coli P-5101; conditions: P5101, in Mus musculus, po, 168 h
Description: Male mice (ddY) weighing about 20 g
Intraperitoneal infection with (about
9 × 10^6 cells/mouse) of a bacterial
as §2, §3

[19] = system: Gram-positive and Gram-negative bacteria; assay: in vivo therapeutic efficacy against systemic infections in mice (overall); set-up: species or system mice (ddY)
[20] = P2381, Proteus mirabilis P-2381, read-out: minimum inhibitory concentration (MIC)
[21] = Serratia marcescens, IFC3736, read-out: minimum inhibitory concentration (MIC)
[22] = Salmonella enteritidis No. 1891
[23] = Staphylococcus aureus 209P JC-1
[24] = C21, Corynebacterium pyogenes C-21, read-out: minimum inhibitory concentration (MIC)
[25] = Pseudomonas aeruginosa No. 12, read-out: minimum inhibitory concentration (MIC)
[26] = Staphylococcus aureus No. 50774, read-out: minimum inhibitory concentration (MIC)
[27] = P2473, Streptococcus faecalis P-2473, read-out: minimum inhibitory concentration (MIC)
[28] = Pseudomonas aeruginosa Tsuchijima
[29] = Klebsiella pneumoniae, NO.13, read-out: minimum inhibitory concentration (MIC)
[30] = P2540, Enterobacter cloacae P-2540, read-out: minimum inhibitory concentration (MIC)
[31] = Escherichia coli, NIHJJC2, read-out: minimum inhibitory concentration (MIC)
[32] = Klebsiella pneumoniae No. 13, read-out: minimum inhibitory concentration (MIC)
[33] = C21, read-out: minimum inhibitory concentration (MIC)
[34] = Pseudomonas aeruginosa, NO.12, read-out: minimum inhibitory concentration (MIC)
[35] = Staphylococcus aureus, NO.50774, read-out: minimum inhibitory concentration (MIC)
[36] = P2473, read-out: minimum inhibitory concentration (MIC)
[37] = Enterobacter cloacae, P2540, read-out: minimum inhibitory concentration (MIC)
[38] = Proteus mirabilis, P2381, read-out: minimum inhibitory concentration (MIC)

SMILES	MIC (Shigella flexneri 2a) [µg/mL]	MIC (Escherichia coli P-140a; Escherichia coli) [µg/mL]	MIC [2, 21] [µg/mL]	MIC [4, 23] [µg/mL]	MIC (Proteus morganii Kono) [µg/mL]	ED50 [5] [mg/kg]	MIC [6, 24] [µg/mL]	MIC [7, 25] [µg/mL]	MIC (Escherichia coli P-5101 [10]) [µg/mL]	MIC [12] [µg/mL]	MIC [15, 29] [µg/mL]	ED50 [17] [mg/kg]	ED50 (Escherichia coli P-5101 [18]) [mg/kg]	MIC [1, 31] [µg/mL]	MIC ([14]; Pseudomonas aeruginosa) [µg/mL]	MIC ([3]; ENTERITIDIS) [µg/mL]	MIC [8, 35] [µg/mL]	MIC ([9]; TYPHIMURIUM) [µg/mL]	MIC ([11]; Streptococcus pyogenes, 65A) [µg/mL]	MIC [13, 36] [µg/mL]	other results
CCn1cc(C(=O)O)c(=O)c2cc(Cl)c(N3CCNCC3)nc21.Cl [Compound 3, 6-Chloro-1-ethyl-1,4-dihydro-4-oxo-7-(1-piperazinyl)-1,8-naphthyridine-3-carboxylic acid hydrochloride]	0.78	0.39	1.56	3.13	1.56	58.6	6.25	6.25	0.39	1.56	1.56	~90	6.5	–	–	–	–	–	–	–	MIC (Proteus mirabilis P-2381; [20]): 3.13 µg/mL; MIC ([1]; NIHJJC2, Escherichia coli NIHJ JC-2, read-out: minimum inhibitory concentration (MIC)): 0.78 µg/mL; LD50 at 168 h (in vivo): > 2000 mg/kg; MIC [3, 22]: 0.39 µg/mL; MIC [8, 26]: 6.25 µg/mL; MIC ([9]; Salmonella typhimurium 8-9): 0.39 µg/mL; MIC ([11]; Streptococcus pyogenes 65A): 12.5 µg/mL; MIC [13, 27]: 25 µg/mL; MIC [14, 28]: 6.25 µg/mL; MIC [16, 30]: 0.78 µg/mL
CC1(C)S[C@@H]2[C@H](NC(=O)C(C(=O)Oc3ccc4c(c3)CCC4)c3ccccc3)C(=O)N2[C@H]1C(=O)O (stereo partly drawn) [G, α-(5-Indanyloxycarbonyl)benzylpenicillin sodium salt]	12.5	–	–	0.39	–	202	3.13	50	6.25	6.25	–	10 to 40	100	6.25	6.25	–	–	–	–	–	MIC (Proteus mirabilis P-2381; [20]): 0.78 µg/mL; MIC (Escherichia coli P-140a; P140A, Escherichia coli P-140a): 50 µg/mL; MIC ([2]; IFC3736, Serratia marcescens IFC 3736, read-out: minimum inhibitory concentration (MIC)): 3.13 µg/mL; MIC [3, 22]: 0.78 µg/mL; MIC (Proteus morganii Kono; Proteus morganii Kono): 0.78 µg/mL; MIC [8, 26]: 0.78 µg/mL; MIC ([9]; Salmonella typhimurium 8-9): 0.78 µg/mL; MIC ([11]; Streptococcus pyogenes 65A): 0.2 µg/mL; MIC [13, 27]: 50 µg/mL; MIC [15, 32]: > 200 µg/mL; MIC [16, 30]: 3.13 µg/mL
CCn1cc(C(=O)O)c(=O)c2ccc(C)nc21 [E, 1-Ethyl-1,4-dihydro-7-methyl-4-oxo-1,8-naphthyridine-3-carboxylic acid]	6.25 (≈ 26.9 µM)	–	6.25 (≈ 26.9 µM)	–	6.25 (≈ 26.9 µM)	> 200	–	–	3.13 (≈ 13.5 µM)	–	12.5 (≈ 53.8 µM)	> 800	29.2	12.5 (≈ 53.8 µM)	200 (≈ 861 µM)	3.13 (≈ 13.5 µM)	50 (≈ 215 µM)	3.13 (≈ 13.5 µM)	> 200	> 200	MIC ([4]; Staphylococcus aureus, 209P): 100 µg/mL (≈ 431 µM); MIC [6, 33]: > 200 µg/mL; MIC [7, 34]: 200 µg/mL (≈ 861 µM); therapeutic effects in vivo against Gram-negative bacteria, relative to compounds 1, 1' and 2 ([19]; Gram-negative, particularly Pseudomonas aeruginosa): clearly inferior; MIC [16, 37]: 6.25 µg/mL (≈ 26.9 µM)
CC1=C(C(=O)O)N2C(=O)[C@@H](NC(=O)[C@H](N)c3ccccc3)[C@H]2SC1 [J, 7-(D-α-Aminophenylacetamido)desacetoxycephalosporanic acid]	12.5 (≈ 36 µM)	> 200	> 200	–	> 200	> 400	–	–	12.5 (≈ 36 µM)	200 (≈ 576 µM)	6.25 (≈ 18 µM)	12.1	22.6	12.5 (≈ 36 µM)	> 200	3.13 (≈ 9.01 µM)	1.56 (≈ 4.49 µM)	6.25 (≈ 18 µM)	0.78 (≈ 2.25 µM)	200 (≈ 576 µM)	MIC (Proteus mirabilis P-2381; [38]): 12.5 µg/mL (≈ 36 µM); MIC ([4]; Staphylococcus aureus, 209P): 1.56 µg/mL (≈ 4.49 µM); MIC [6, 33]: 1.56 µg/mL (≈ 4.49 µM); MIC [7, 34]: > 200 µg/mL; MIC [16, 37]: > 200 µg/mL
CCn1cc(C(=O)O)c(=O)c2cnc(N3CCNCC3)nc21 [F, 8-Ethyl-5,8-dihydro-5-oxo-2-(1-piperazinyl)pyrido[2,3-d] pyrimidine-6-carboxylic acid]	3.13 (≈ 10.3 µM)	1.56 (≈ 5.14 µM)	3.13 (≈ 10.3 µM)	12.5 (≈ 41.2 µM)	3.13 (≈ 10.3 µM)	99.5	25 (≈ 82.4 µM)	25 (≈ 82.4 µM)	1.56 (≈ 5.14 µM)	1.56 (≈ 5.14 µM)	–	215	21.2	1.56 (≈ 5.14 µM)	–	1.56 (≈ 5.14 µM)	25 (≈ 82.4 µM)	1.56 (≈ 5.14 µM)	200 (≈ 659 µM)	200 (≈ 659 µM)	MIC (Proteus mirabilis P-2381; [38]): 3.13 µg/mL (≈ 10.3 µM); MIC [14, 28]: 12.5 µg/mL (≈ 41.2 µM); MIC [15, 32]: 6.25 µg/mL (≈ 20.6 µM); MIC [16, 37]: 1.56 µg/mL (≈ 5.14 µM)
CCOC(=O)c1cn(CC)c2nc(N3CCNCC3)c(F)cc2c1=O [ethyl ester of compound 1, Ethyl 1-ethyl-6-fluoro-1,4-dihydro-4-oxo-7-(1-piperazinyl)-1,8-naphthyridine-3-carboxylate]	–	–	–	–	–	21	–	–	–	–	–	~20	–	–	–	–	–	–	–	–	therapeutic effect / in vivo antibacterial activity (in words) ([19]; systemic infections with Gram-positive and Gram-negative bacteria): superior antibacterial activity in vivo
